{
  "source": "paper PMC4992173",
  "about": "“Divergent synthesis and identification of the cellular targets of deoxyelephantopins” (Nature Communications, 2016)",
  "biological_target": "T1, Glyoxylate reductase/hydroxypyruvate reductase (GRHPR) (Homo sapiens, UniProt Q9UBQ7)",
  "T1 construct": "endogenous in cells; host or cells: MCF7",
  "T1 sequence (Q9UBQ7 whole entry)": "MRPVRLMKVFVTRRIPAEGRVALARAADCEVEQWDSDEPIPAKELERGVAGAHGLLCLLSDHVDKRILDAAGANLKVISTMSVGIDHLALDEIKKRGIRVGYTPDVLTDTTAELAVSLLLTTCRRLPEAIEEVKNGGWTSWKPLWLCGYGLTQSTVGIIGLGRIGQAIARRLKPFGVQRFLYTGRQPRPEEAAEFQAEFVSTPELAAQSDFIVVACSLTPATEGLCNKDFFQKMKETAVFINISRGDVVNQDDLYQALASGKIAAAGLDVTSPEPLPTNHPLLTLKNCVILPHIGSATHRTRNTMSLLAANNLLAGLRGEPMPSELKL",
  "experiment": "SILAC competitive profiling with probe 24c in MCF7 lysates: GRHPR",
  "format": "binding",
  "conditions": "protein GRHPR, 1 h, then 10 µM 24c",
  "from_the_text": "In our efforts to determine the direct molecular targets of deoxyelephantopin we first performed a gel-based competitive in situ proteomic profiling assay[41] […] While the greater conformational flexibility of probe 24c could potentially lead to more promiscuous target engagement relatively to deoxyelephantopin, it was favoured based on the fact that an alkyne moiety appended to the rigid scaffold of deoxyelephantopin may hinder some of its interactions. MCF7 cells were pretreated with various concentrations of deoxyelephantopin for 4 h, harvested, lysed and the lysates were treated with the fluorogenic probe 24c-Cy3 (10 μM; Supplementary Fig. 10). […] Furthermore, cells were pretreated with 20 μM concentration of deoxyelephantopin or 24c and the proteomic profiles were compared (Fig. 6b, Supplementary Fig. 11). Multiple bands were detected that were equally competed by both DEP and 24c, thus again confirming that 24c can be used as an acceptable clickable analogue of deoxyelephantopin in pulldown assays. Having established the optimal labelling conditions by SDS–PAGE, we next carried out a mass spectrometry-based competitive profiling assay[42] coupled with the method of stable isotope labelling of amino acids in culture (SILAC)[43]. […]\nvisualization were performed as described above. Images were quantified with ImageJ and kinetics values were calculated using GraphPad Prism (V6.03). […]",
  "data": [
    {"smiles": "C=C(C)C(=O)O[C@H]1CC2=C[C@@H](C/C(C)=C/[C@H]3OC(=O)C(=C)[C@H]13)OC2=O", "note": "[deoxyelephantopin]", "values": [
      {"measurement": "SILAC ratio 20 µM Deoxyelephantopin/DMSO with 24c", "result": 0.23}
    ]}
  ]
}
